Assay results: patent US12473332B2, “Modified peptides and associated methods of use” (Advanced Technologies For Novel Therapeutics, LLC, priority 2019, dated 2025)
Where no end group is shown, it is not given here.

Experiments:
[1] = tested on: AKT; experiment: AKT activity in cultured neurons treated with PKA inhibitor or activator (AKT phosphorylation at Thr-308 and Ser-473); type: cell-based
Experimental: To evaluate the significance of the AKT-PKAc interaction, kinase inhibitors were employed. […] Thus, cultured neurons were treated with the selective PKA inhibitor, H-89, and the potent PKA activator, forskolin, and AKT activity was analyzed.

[2] = tested on: Neuroblastoma cells; settings: literature; read-out: IC-50 on neuroblastoma cells; cited from earlier work
[3] = tested on: glioblastoma cells; settings: literature; read-out: IC-50 on glioblastoma cells; cited from earlier work
[4] = trypan blue staining, live and dead cell count; type: cell-based; settings: 12 to 72 hours
Description: Therefore, in addition to capturing live images, cells were stained with trypan blue at different time intervals following treatment with ZaTa and counted by a light microscope using a hemocytometer.

[5] = molecular target: AKT (Homo sapiens, UniProt P31749); experiment: in vitro AKT kinase assay with Ser-9 GSK-3 GST fusion protein substrate; PKAc peptide library screen; type: biochemical; settings: Ser-9 GSK-3 GST substrate
AKT (Homo sapiens, UniProt P31749), sequence (P31749 whole entry, the tested form may be a part): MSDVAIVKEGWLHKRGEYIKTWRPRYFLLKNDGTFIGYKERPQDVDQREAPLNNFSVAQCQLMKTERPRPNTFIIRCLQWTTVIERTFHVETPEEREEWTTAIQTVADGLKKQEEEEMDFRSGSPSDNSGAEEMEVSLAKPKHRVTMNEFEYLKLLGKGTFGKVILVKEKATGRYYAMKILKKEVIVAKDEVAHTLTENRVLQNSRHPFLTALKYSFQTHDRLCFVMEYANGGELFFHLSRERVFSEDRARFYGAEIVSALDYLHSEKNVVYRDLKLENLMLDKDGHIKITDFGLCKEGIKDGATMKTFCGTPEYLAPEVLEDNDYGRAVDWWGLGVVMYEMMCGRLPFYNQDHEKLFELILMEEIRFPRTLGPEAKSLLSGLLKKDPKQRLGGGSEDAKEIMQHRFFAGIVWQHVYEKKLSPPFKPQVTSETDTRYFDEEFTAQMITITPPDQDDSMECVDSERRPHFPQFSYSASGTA

[6] = molecular target: AKT1 (Homo sapiens, UniProt P31749); experiment: AKT1 in vitro kinase assay, γ-32P incorporation into Ser-21 GSK-3β substrate peptide; type: biochemical
AKT1, sequence (P31749 whole entry): as the sequence (P31749 whole entry, the tested form may be a part) above

Compound | number of dead cells [4] | inhibitory effect on catalytic activity of AKT [5] | further results
O=S(=O)(NCCNC/C=C/c1ccc(Br)cc1)c1cccc2cnccc12 [Peptide H-89, H-89] |  |  | activity of AKT (activation-dependent phosphorylation at Thr-308 and Ser-473) [1]: dose-dependent increase in the activity of AKT
Cn1nnc2c(C(N)=O)ncn2c1=O [Temodar] |  |  | IC50 [2]: 602 µM; IC50 [3]: 421 to 1020 µM
AKRVKGRDWTLCGTPEY [ZaTa^T8D] | a significant increase in the number of dead cells was not seen |  | 
AKRVKGRTWDLCGTPEY [ZaTa^T10D] | a significant increase in the number of dead cells was not seen |  | 
AKRVKGRTWTLCGRPEY [ZaTa^T14R] | a significant increase in the number of dead cells was observed |  | 
AKRVKGRTWTLCGTPER [ZaTa^Y17R] | a significant increase in the number of dead cells was observed |  | 
D-Q-Q-G-Y-I-Q-V-T-D-F-G-F-A-K (DQQGYIQVTDFGFAK; MISC_FEATURE - Peptide_SEQ ID NO:56) [Peptide 49] |  | significant inhibitory effects | 
G-F-A-K-R-V-K-G-R-T-W-T-L (GFAKRVKGRTWTL; MISC_FEATURE - Peptide_SEQ ID NO:59) [Peptide 52] |  |  | inhibition of AKT1 catalytic activity [6]: not able to inhibit AKT1
G-V-L-I-Y-E-M-A-A-G-Y-P-P-F-F (GVLIYEMAAGYPPFF; MISC_FEATURE - Peptide_SEQ ID NO:70) [Peptide 63] |  | significant inhibitory effects | 
W-A-L-G-V-L-I-Y-E-M-A-A-G-Y (WALGVLIYEMAAGY; MISC_FEATURE - Peptide_SEQ ID NO:69) [Peptide 62] |  | significant inhibitory effects | 
Y-E-M-A-A-G-Y-P-P-F-F-A (YEMAAGYPPFFA; MISC_FEATURE - Peptide_SEQ ID NO:71) [Peptide 64] |  | significant inhibitory effects | 
